Assay results as given in patent US6017958A, “Method of treating malignant tumors with thyroxine analogues having no significant hormonal activity” (Octamer, Inc., priority 1997, dated 2000).
pIC50: −log10 of the molar value. “Also recorded” adds a separate entry of the source. Read-outs that look alike come from different tables or passages of the source.

Tests used:
[1] = test system: DU 145 (prostate cancer); test: Cytocidal action/growth inhibition, DU 145; type: cell-based; details: Homo sapiens
Procedure: Seven human cancer cell lines were obtained from the American Tissue Culture Collection (Rockville, Md.) and maintained in the recommended growth media. Cells were seeded into wells (2 cm^2) at a density of 2×10^4 cells/cm^2. Various concentrations of Compounds 1-13 were added to the media at the time of seeding.
The cultures were incubated for 72 hours at 37° C. (5% CO2 atmosphere). Following incubation, cells were detached with trypsin and counted in a hemocytometer.
I100 designates the concentration at which no viable cells remained; I50 the concentration at which 50% viable cells remained, as compared to a control.
(§1) E-ras 20 cells were cultured as reported, Bauer et al., 1996, "Modification of growth related enzymatic pathways and apparent loss of tumorigenicity of a ras-transformed bovine endothelial cell line by treatment with 5-iodo-6-amino-1,2-benzopyrone (INH2 BP)" Intl. J. Oncol. 8:239-252; HT-144 (melanoma), DU-145 (prostatic cancer), HeLa (cervical cancer), HL 60 (promyelocytic leukemia), MDA-MB-231 (mammary cancer), SK-Br-3 (mammary cancer), T47D (ductal mammary cancer), A559 (lung cancer) were obtained from American Type Culture Collection (Rockville, Md.) and cultured in prescribed media. The effect of DIME was tested in cultures with a starting cell density of 2×10^4 cells per cm^2 and comparison of the effect of DIME on cell growth (intact cells identified by Trypan blue exclusion) was assayed by direct cell counting after trypsinization in a hemocytometer 72 hours after drug addition.
(§2) For DIME-exposure experiments cells were seeded into 2 cm^2 wells at a density of 2×10^4 cells/cm^2. DIME at various concentrations was added to the medium at the time of seeding. The cell cultures were then incubated for 3 days (37° C. in 5% at CO2 atmosphere).

[2] = test system: E-ras 20 cells; test: Growth inhibition, E-ras 20; type: cell-based, bovine; details: Bos taurus, 72 h; day 3; Table 11; read-out: I50 (day 3)
Procedure: as §1, §2

[3] = test system: MDA-MD-231 cells; test: Inhibition of tumor cell growth; type: cell-based, human; details: 3 days, control 0.95
Procedure: MDA-MD-231 human cancer cells were obtained from the American Tissue Culture Collection (Rockville, Md.) and maintained in the recommended growth media. Cells were grown in the presence of various concentrations of Compounds 1 and 14 for 3 days at 37° C.

[4] = In vivo toxicity; design: species or system mouse
Procedure: Ten nude mice were administered a daily oral dose of ^14 C-labeled DIME (Compound 1) (1.0 g/kg, 0.1 mL in corn oil) for a period of 12-15 days.

[5] = test system: MDA-MB-231 xenografts; test: MDA-MB-231 xenograft growth in nude mice; type: in vivo, human tumor in nude mice; details: 250 mg/kg gavage, 5 days/week; control 979.0 ± 154; p = 0.01; in mm³ (unit assumed)
Procedure: MDA-MB-231 (human mammary cancer) cells were obtained from American Type Culture Collection (Rockville, Md.) and maintained in the recommended growth media. Twenty nude mice were each inoculated subcutaneously with MDA-MB-231 cells (10^6 cells/100 μL). To one group of ten mice, DIME was administered by gavage (250 mg/kg, 10 mL/kg in corn oil) once per day, 5 days per week, for a total of 32 days. The other (control) group of ten mice was given administered vehicle only according to the same dosing schedule. Tumors were measured twice weekly using a Vernier caliper, and the mean tumor volume was determined at each time point. Comparisons between groups were made using an unpaired, two-tailed t-test and the results were analyzed using analysis of variance.
Tumorigenicity of E-ras 20 Cells in athymic nude mice was assayed as described previously. Bauer et al., 1996, "Modification of growth related enzymatic pathways and apparent loss of tumorigenicity of a ras-transformed bovine endothelial cell line by treatment with 5-iodo-6-amino-1,2-benzopyrone (INH2 BP)" Intl. J. Oncol. 8:239-252. The in vivo antitumorigenic action of DIME was assayed on athymic mice inoculated with 10^6 MDA-MB-231 cells, as in the tumorgenicity assay. […]

[6] = test system: E-ras cells; test: DNA cuts (TUNEL); type: cell-based, bovine; details: 2-10 μM, 18 hours
Procedure: E-ras cells (2×10^4 cells/cm^2) were treated with DIME 18 hours prior to the TUNEL assay.
Assay for DNA cuts, as a signal for apoptosis, was via the terminal deoxynucleotidyl transferase dUTP nick end labeling (TUNEL) reaction as specified by the manufacturer of the assay kit (Boehringer Mannheim, Indianapolis, Ind., USA, Cat. No. 168-4817).

## COC(=O)c1cc(I)c(Oc2ccc(OC)cc2)c(I)c1 [Compound 1, Methyl 3,5-diiodo-4-(4'-methoxyphenoxy)benzoate]
[1]; DU-145, 72 h, day 3, Table 11, read-out: I50 (day 3)
  pIC50: 6.30
[1]; DU-145, 72 h, Table 4, read-out: I50
  pIC50: 6.30
[1]; DU-145, 72 h, Table 4, read-out: I100 (no viable cells remained)
  IC100: 3.5 µM
[2]
  pIC50: 6.00
[3]; 0.5 μM
  Cells (growth): 0.20 ×10^6
[3]; 1.0 μM
  Cells (growth): 0.10 ×10^6
[3]; 2.0 μM
  Cells (growth): 0.09 ×10^6
[4]; 1.0 g/kg daily oral, 12-15 days, nude mice, listed as DIME
  ill effects: No ill effects were observed; also recorded: produced no ill effects
[4]; in vivo
  macroscopically observed toxicity in vivo: no macroscopically observed toxicity in vivo
[5]
  Tumor Volume Day 28 ± SEM: 430 ± 85.6
[6]
  DNA breaks: drug concentration-dependent DNA breaks
